The subject of experiment [1] is lsr expression in E. coli (lsr-lacZ reporter strains). Kind of experiment: QS response (lsr expression): AI-2 dependent β-galactosidase production, Miller assay. It counts as cell-based, Escherichia coli. Conditions: E. coli ZK126 pLW11 LW8 (luxS+, lsrR−), 20 μM analog.
For experiment [2], the system named is P. aeruginosa. Kind of experiment: DPD analogs and representative bacterial species affected (Table 1). Type of experiment: cell-based. On the set-up: key: x: DPD Analogs and representative bacterial species affected.
In experiment [3] the test system is lsr expression in S. typhimurium (lsr-lacZ reporter strains). Kind of experiment: QS response (lsr expression): AI-2 dependent β-galactosidase production, Miller assay. Type of experiment: cell-based, Salmonella typhimurium. The procedure: The panel of C1-alkyl analogs was screened to identify QS modulators in the enteric bacteria E. coli and S. typhimurium. Transcription of the QS associated lsr operon, by using lsr-lacZ reporter strains (Table 2) which produce β-galactosidase in response to added AI-2 was monitored. In order to first establish if the analogs were agonists or antagonists in the QS circuit, the analogs were incubated with E. coli LW7 pLW11 and S. typhimurium MET715 (FIG. 19a-b) both of which are luxS^−. None of the analogs, except ethyl-DPD behaved as agonists for lsr expression. Previous studies investigating AI-2 antagonism in P. aeruginosa or in S. typhimurium were carried out using chemically synthesized AI-2 added to luxS^− cells. […] The same trends were obtained by adding a 1:1 ratio of enzymatically synthesized AI-2 and DPD analogs to the luxS^− strains E. coli LW7 pLW11 and S. typhimurium MET715 (FIG. 11a-b). None of the tested DPD analogs were bacteriocidal or bacteriostatic as the OD600 values of E. coli ZK126 pLW11 and S. typhimurium MET708 in the presence and absence of the analogs were similar (FIG. 10). Though the QS circuitry of the enteric organisms, E. coli and S. typhimurium are homologous they respond differently to the DPD analogs. The E. coli QS circuitry is susceptible to being silenced by a variety of DPD analogs of different shapes and sizes whereas in S. typhimurium, only a handful of DPD analogs could antagonize the action of AI-2. […] Isobutyl-DPD emerged as an effective and non-species-specific quencher; causing significant lsr expression knockdowns in both E. coli and S. typhimurium.
The QS response indicated by lsr gene expression was analyzed in pure culture studies by culturing E. coli LW7 pLW11, E. coli ZK126 pLW11 and S. typhimurium MET708, S. typhimurium MET715 overnight in LB medium supplemented with appropriate antibiotics as stated previously. These cells were then diluted into fresh LB medium (with antibiotics) and grown to an OD600 of 0.8-1.0 at 30° C., 250 rpm. Cells were then collected by centrifugation at 10,000×g for 10 minutes, and resuspended in 10 mM phosphate buffer. AI-2 (20 μM) and the respective analog (20 μM) were added to the E. coli or S. typhimurium suspension for 2 hours at 37° C. AI-2 dependent β-galactosidase production was quantified by the Miller assay.
The QS response indicated by lsr gene expression was analyzed in pure culture studies by culturing E. coli LW7 pLW11 and S. typhimurium MET715 overnight at 30° C. in LB medium supplemented with appropriate antibiotics as stated previously. These cells were then diluted into fresh LB medium (with antibiotics) and grown to an OD600 of 0.4-0.8 at 37° C., 250 rpm. Cells were then collected by centrifugation at 10,000×g for 10 min and resuspended in 10 mM phosphate buffer. AI-2 (20 μM) and the respective analog (20 μM) were added to the E. coli or S. typhimurium suspension for 2 h at 37° C. AI-2 dependent β-galactosidase production was quantified by the Miller assay.
The QS response indicated by lsr gene expression was analyzed in pure culture studies by culturing E. coli LW7 pLW11, E. coli ZK126 pLW11 and S. typhimurium MET708, S. typhimurium MET715 overnight in LB medium individually supplemented with appropriate antibiotics, as specified above. These cells were diluted into fresh LB medium (with antibiotics) and grown to an OD600 of 0.8-1.0 at 30° C., 250 rpm. Cells were collected by centrifugation at 10,000×g for 10 minutes, and resuspended in 10 mM phosphate buffer. AI-2 (20 μM) and the respective analog (20 μM) were added to the E. coli or S. typhimurium suspension for 2 hours at 37° C. AI-2 dependent β-galactosidase production was quantified by the Miller assay.

Experiment [4] deals with S. typhimurium MET708. Nature of the experiment: Trispecies synthetic ecosystem (S. typhimurium, V. harveyi, E. coli): β-galactosidase activity. It counts as cell-based. Conditions: trispecies co-culture, lacZ activity after 4 hours. From the text:
(§1) To investigate the effect of the DPD analogs in a mixed bacterial environment, a synthetic ecosystem composed of three different bacterial populations was assembled. Specifically, S. typhimurium MET708, V. harveyi BB170 and E. coli W3110 (pCT6), each luxS^+ (Table 2), and each producing their native AI-2 were co-cultured in the same tubes. By design, each species was selected so that a different reporter probe would indicate the specific bacterium's QS response: S. typhimurium (MET708) expresses β-galactosidase; V. harveyi (BB170) elicits bioluminescience; and E. coli (W331) are engineered to synthesize GFP. In this way, their responses can be differentiated and quantified in response to AI-2.
(§2) The S. typhimurium MET708, V. harveyi BB170 and E. coli W3110 pCT6 were each cultured separately overnight in LM medium supplemented with the appropriate antibiotic. […] The V. harveyi luminescence response was measured after 2.5 hours. The S. typhimurium lacZ (β-galactosidase) activity was measured after 4 hours. The E. coli response was determined after 8 hours, by fixing the cells with 1:1 cold 4% paraformaldehyde and using flow cytometric analysis. Samples were analyzed by flow cytometery (FACS Canto II, BD 394 Biosciences), with 20,000 gated events analyzed per sample.

Experiment [5] deals with V. harveyi. Nature of the experiment: DPD analogs and representative bacterial species affected (Table 1). Type of experiment: cell-based. Details: key: x: DPD Analogs and representative bacterial species affected.
In experiment [6] the test system is V. harveyi BB170. Nature of the experiment: QS response (bioluminescence), trispecies synthetic ecosystem. It counts as cell-based. Conditions: 40 μM, LM media. As to the method:
The effect of isobutyl-DPD or isopropyl-DPD on QS associated bioluminescence production by V. harveyi was recorded by measuring the light production from reporter strain, V. harveyi BB170. The analogs were added at concentrations of (20 μM or 40 μM) to V. harveyi BB170 which was assayed as previously described.
The S. typhimurium MET708, V. harveyi BB170 and E. coli W3110 pCT6 were each cultured separately overnight in LM medium supplemented with the appropriate antibiotic. V. harveyi BB170, S. typhimurium MET708 and E. coli MDAI-2 were diluted (1:4:8), respectively, into a single 1 ml volume of fresh LM medium without antibiotics. The co-culture was supplemented with either 20 μM or 40 μM analog initially and again after 3 and 5 hours of growth. The V. harveyi luminescence response was measured after 2.5 hours. The S. typhimurium lacZ (β-galactosidase) activity was measured after 4 hours. The E. coli response was determined after 8 hours, by fixing the cells with 1:1 cold 4% paraformaldehyde and using flow cytometric analysis. Samples were analyzed by flow cytometery (FACS Canto II, BD 394 Biosciences), with 20,000 gated events analyzed per sample.

Experiment [7] relates to E. coli W3110 pCT6. Nature of the experiment: Trispecies synthetic ecosystem: AI-2 stimulated GFP expression, flow cytometry. The conditions noted are these: trispecies co-culture, flow cytometry after 8 hours; 60.7% without analog. It counts as cell-based.
Description: as §1, §2

The text below walks through data of US8952192B2, “Phosphorylated and branched dihydroxy-pentane-dione (DPD) analogs as quorum sensing inhibitors in bacteria” (University of Maryland, College Park, priority 2011, dated 2015).

“Also recorded” adds a separate entry of the source.

With `O=C(C(=O)C(O)CO)c1ccccc1` (stereo not drawn) [Phenyl-DPD, Phenyl DPD], in experiment [1], the “difference in lsr expression versus control in lsrR null mutant” value is “exception”. The “bacterial species affected: P. aeruginosa” value in experiment [2] is reported as “x”.
Consider `CC(C)CC(=O)C(=O)[C@@H](O)CO` [Isobutyl-DPD, isobutyl-DPD], for which the “effect on native lsr expression (QS response)” value in experiment [3] (S. typhimurium MET708 (luxS+), cells produce their own AI-2) is “significant knocked down; also recorded: significantly inhibited signaling”. In addition, in experiment [3] (S. typhimurium MET715 (LuxS−), 20 μM AI-2 + 20 μM analog), the “decrease of lacZ expression” value is on record as “about 50%”. In addition, the concentration for half-maximal inhibition (IC50) – broadly, the concentration that inhibits the measured activity by half – in experiment [3] (concentration reducing lsr expression (β-galactosidase production) to 50% in the presence of 20 μM exogenously added synthetic DPD, read-out: IC50 of analog (nM) to inhibit QS in S. typhimurium) is 20000 nM. Besides, the “decrease of S. typhimurium β-galactosidase activity” value in experiment [4] is recorded as 4 fold. Further, in experiment [5], the “bacterial species affected: V. harveyi” value is listed as “x”. Moreover, the “decrease of bioluminescence in V. harveyi” value in experiment [6] is 33%. The “QS positive (green, GFP) cells of the E. coli population after analog addition” value in experiment [7] is recorded as 0.7%.
